Patent US9247759B2, “Identification of human T2R receptors that respond to bitter compounds that elicit the bitter taste in compositions, and the use thereof in assays to identify compounds that inhibit (block) bitter taste in compositions and use thereof” (SENOMYX, INC., priority 2007, dated 2016)
Values joined by “and” are separate entries in the source; they are usually repeats but may differ in a detail not shown here. Equal entries are not always repeated. Where two headings read alike, the source gives them in different places.

Tests used:
[1] = tested on: hT2R44; experiment: hT2R panel inhibition, transient HEK293 G16g44, agonist Denatonium 0.5 μM; format: cell-based, human; conditions: compound at 25 μM; for screening result against bitter receptor 44: receptor activated to EC80 with the corresponding agonist
Procedure, shortened: (§1)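 The test compound's selectivity was profiled by challenging each transiently expressed human T2R with its activating bitter ligand at an EC80 concentration, inhibition being the reduction of receptor signalling it produced.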

[2] = target: hT2R64 (Homo sapiens (Human), UniProt P59538); experiment: hT2R panel inhibition, transient HEK293 G16g44, agonist Aristolochic Acid 1 μM; format: cell-based; conditions: HEK293, compound at 25 μM
Procedure, shortened: as §1

[3] = target: hT2R4 (Homo sapiens (Human), UniProt Q9NYW5); experiment: hT2R panel inhibition, transient HEK293 G16g44, agonist Chloroquine pH6.5 5 mM; format: cell-based; conditions: HEK293, compound at 25 μM
Description: Specifically, in order to evaluate the inhibitory selectivity of the Compound C compound, this compound was tested against 22 human T2Rs which were deorphaned by Senomyx. These receptors and the bitter ligands that activate these human T2Rs are reported in earlier patent applications which are incorporated by reference herein. These 22 human T2Rs are hT2R1, 3, 4, 5, 7, 8, 9, 10, 13, 14, 16, 44, 51, 54, 55, 61, 63, 64, 65, 67, 71 and 75. The amino acid and nucleic acid sequences of all of these T2Rs may be found in these earlier patent applications. These human T2Rs were each individually transiently transfected into HEK293 cells that stably express the promiscuous G protein G16g44 and functional assays were effected using these receptors as disclosed in these same patent applications. […] The ligands were used at EC80 concentration levels. The list of bitter ligands utilized and the tested ligand concentrations are contained in Table 5 of this example.
Relating to the foregoing, FIG. 5 contains experimental results wherein Compound C was tested with different agonist compounds. The inhibition activity is represented by the reduction of receptor activity in the presence of Compound C. […] These 13 hT2Rs are hT2R3, 7, 10, 14, 16, 44, 51, 55, 61, 63, 64, 65, and 71.

[4] = tested on: hT2R63; experiment: hT2R panel inhibition, transient HEK293 G16g44, agonist Caffeine 1 mM or Andrographolide 100 μM; format: cell-based, human; conditions: compound at 25 μM; for screening result against bitter receptor 63: receptor activated to EC80 with the corresponding agonist
Procedure, shortened: as §1

[5] = target: hT2R71 (Homo sapiens (Human), UniProt P59536); experiment: hT2R panel inhibition, transient HEK293 G16g44, agonist Picric Acid 10 μM; format: cell-based; conditions: HEK293, compound at 25 μM
Procedure, shortened: as §1

[6] = target: hT2R61 (Homo sapiens (Human), UniProt P59537); experiment: hT2R panel inhibition, transient HEK293 G16g44, agonist Aristolochic Acid 25 nM; format: cell-based; conditions: HEK293, compound at 25 μM
Procedure, shortened: as §1

[7] = target: hT2R7 (Homo sapiens (Human), UniProt Q9NYW3); experiment: hT2R panel inhibition, transient HEK293 G16g44, agonist Chloroquine pH6.5 10 mM; format: cell-based; conditions: HEK293, compound at 25 μM
Procedure, shortened: as §1

[8] = target: hT2R10 (Homo sapiens (Human), UniProt Q9NYW0); experiment: hT2R panel inhibition, transient HEK293 G16g44, agonist Strychnine 50 μM; format: cell-based
[9] = tested on: hT2R54; experiment: hT2R panel inhibition, transient HEK293 G16g44, agonist Ranitidine 5 mM; format: cell-based, human; conditions: compound at 25 μM
Procedure, shortened: as §1

[10] = target: hT2R5 (Homo sapiens (Human), UniProt Q9NYW4); experiment: hT2R panel inhibition, transient HEK293 G16g44, agonist Picoline 10 mM; format: cell-based; conditions: HEK293, compound at 25 μM
Procedure, shortened: as §1

[11] = tested on: hT2R67; experiment: hT2R panel inhibition, transient HEK293 G16g44, agonist Andrographolide 5 μM; format: cell-based, human; conditions: compound at 25 μM; receptor activated to EC80 with agonist
Procedure, shortened: as §1

[12] = target: hT2R16 (Homo sapiens (Human), UniProt Q9NYV7); experiment: hT2R panel inhibition, transient HEK293 G16g44, agonist Salicin 1 mM; format: cell-based; conditions: HEK293, compound at 25 μM
Procedure, shortened: as §1

[13] = target: hT2R3 (Homo sapiens (Human), UniProt Q9NYW6); experiment: hT2R panel inhibition, transient HEK293 G16g44, agonist Chloroquine pH6.5 50 μM; format: cell-based; conditions: HEK293, compound at 25 μM
Procedure, shortened: as §1

[14] = target: hT2R51 (Homo sapiens (Human), UniProt P59533); experiment: hT2R panel inhibition, transient HEK293 G16g44, agonist Prop 2.5 μM; format: cell-based; conditions: HEK293, compound at 25 μM
Procedure, shortened: as §1

[15] = target: T1, hT2R14 (Homo sapiens (Human), UniProt Q9NYV8); experiment: hT2R panel inhibition, transient HEK293 G16g44, agonist Aristolochic Acid 2 μM; format: cell-based; conditions: HEK293, compound at 25 μM
Procedure, shortened: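 Each hT2R was transiently transfected into HEK293 cells stably expressing G16g44 and assayed functionally for inhibition of agonist response. Agonists were applied at EC80: andrographolide at 0.5 mM for hT2R8 and aristolochic acid at 2 μM for hT2R14.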

[16] = tested on: hT2R65; experiment: hT2R panel inhibition, transient HEK293 G16g44, agonist Oleuropein 1 mM; format: cell-based, human; conditions: compound at 25 μM
Procedure, shortened: as §1

[17] = tested on: hT2R55; experiment: hT2R panel inhibition, transient HEK293 G16g44, agonist Cinchonine 150 μM; format: cell-based, human; conditions: compound at 25 μM; for screening result against bitter receptor 55: receptor activated to EC80 with the corresponding agonist
Procedure, shortened: as §1

[18] = target: T1, hT2R14; experiment: hT2R14 antagonist high-throughput FLIPR assay, stable cell line with G16g44, agonist aristolochic acid; format: cell-based; conditions: read-out: IC50 on hT2R14 bitter receptor
Procedure, shortened: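 HEK293 cells stably expressing hT2R14 with chimeric G16g44 were stimulated with aristolochic acid (3 μM), giving 70-80% of maximal receptor activity. Test compounds were added together with the agonist, and antagonism was read as fluorescent calcium signal on FLIPR.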

[19] = target: hT2R75 (Homo sapiens (Human), UniProt P59540); experiment: hT2R panel inhibition, transient HEK293 G16g44, agonist Strychnine 1 μM; format: cell-based; conditions: HEK293, read-out: screening result against bitter receptor 75, compound at 25 μM; receptor activated to EC80 with the corresponding agonist
[20] = receptor activated to EC80 with the corresponding agonist, read-out: screening result against bitter receptor 64
[21] = receptor activated to EC80 with the corresponding agonist, class symbols, read-out: screening result against bitter receptor 4
[22] = receptor activated to EC80 with the corresponding agonist, read-out: screening result against bitter receptor 71
[23] = receptor activated to EC80 with the corresponding agonist, read-out: screening result against bitter receptor 61
[24] = receptor activated to EC80 with the corresponding agonist, read-out: screening result against bitter receptor 7
[25] = receptor activated to EC80 with agonist
[26] = HEK293, read-out: screening result against bitter receptor 10, compound at 25 μM, receptor activated to EC80 with the corresponding agonist
[27] = receptor activated to EC80 with the corresponding agonist, read-out: screening result against bitter receptor 16
[28] = receptor activated to EC80 with the corresponding agonist, read-out: screening result against bitter receptor 3
[29] = receptor activated to EC80 with the corresponding agonist, read-out: screening result against bitter receptor 14
[30] = receptor activated to EC80 with the corresponding agonist, read-out: screening result against bitter receptor 5
[31] = receptor activated to EC80 with the corresponding agonist

hT2R5, sequence (Q9NYW4 whole entry): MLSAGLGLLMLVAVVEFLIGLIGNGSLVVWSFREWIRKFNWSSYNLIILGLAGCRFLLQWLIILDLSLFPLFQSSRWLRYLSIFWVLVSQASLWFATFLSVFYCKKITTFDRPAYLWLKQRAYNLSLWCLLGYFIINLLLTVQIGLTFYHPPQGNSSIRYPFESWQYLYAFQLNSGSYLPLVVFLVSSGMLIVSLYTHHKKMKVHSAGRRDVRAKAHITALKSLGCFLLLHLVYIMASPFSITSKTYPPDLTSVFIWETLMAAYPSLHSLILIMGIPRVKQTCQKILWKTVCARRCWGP
hT2R61, sequence (P59537 whole entry): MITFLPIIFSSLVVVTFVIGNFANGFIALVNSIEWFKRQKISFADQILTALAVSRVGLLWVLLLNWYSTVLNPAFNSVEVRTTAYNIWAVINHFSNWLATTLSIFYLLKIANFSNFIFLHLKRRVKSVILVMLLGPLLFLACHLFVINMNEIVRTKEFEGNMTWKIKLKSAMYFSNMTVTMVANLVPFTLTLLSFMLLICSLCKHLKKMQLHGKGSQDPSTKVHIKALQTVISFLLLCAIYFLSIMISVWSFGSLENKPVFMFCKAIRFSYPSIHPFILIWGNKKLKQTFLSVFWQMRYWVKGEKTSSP
hT2R3, sequence (Q9NYW6 whole entry): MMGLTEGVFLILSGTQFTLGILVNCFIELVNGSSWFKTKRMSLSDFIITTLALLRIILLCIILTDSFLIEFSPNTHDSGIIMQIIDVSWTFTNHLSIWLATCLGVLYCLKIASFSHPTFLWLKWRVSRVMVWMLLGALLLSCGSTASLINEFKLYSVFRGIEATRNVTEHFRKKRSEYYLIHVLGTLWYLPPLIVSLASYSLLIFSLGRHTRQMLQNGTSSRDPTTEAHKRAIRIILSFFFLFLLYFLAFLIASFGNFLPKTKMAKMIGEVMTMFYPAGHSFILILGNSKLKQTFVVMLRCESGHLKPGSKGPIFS
hT2R64, sequence (P59538 whole entry): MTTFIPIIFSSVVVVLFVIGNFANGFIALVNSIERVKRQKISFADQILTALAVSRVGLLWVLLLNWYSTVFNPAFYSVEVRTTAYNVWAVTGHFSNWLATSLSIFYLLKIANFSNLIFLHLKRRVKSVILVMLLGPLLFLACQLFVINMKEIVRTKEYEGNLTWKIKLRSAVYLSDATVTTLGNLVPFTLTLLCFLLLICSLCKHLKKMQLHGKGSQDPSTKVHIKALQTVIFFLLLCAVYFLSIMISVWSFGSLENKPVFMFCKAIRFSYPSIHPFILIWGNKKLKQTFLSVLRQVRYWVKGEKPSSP
hT2R7, sequence (Q9NYW3 whole entry): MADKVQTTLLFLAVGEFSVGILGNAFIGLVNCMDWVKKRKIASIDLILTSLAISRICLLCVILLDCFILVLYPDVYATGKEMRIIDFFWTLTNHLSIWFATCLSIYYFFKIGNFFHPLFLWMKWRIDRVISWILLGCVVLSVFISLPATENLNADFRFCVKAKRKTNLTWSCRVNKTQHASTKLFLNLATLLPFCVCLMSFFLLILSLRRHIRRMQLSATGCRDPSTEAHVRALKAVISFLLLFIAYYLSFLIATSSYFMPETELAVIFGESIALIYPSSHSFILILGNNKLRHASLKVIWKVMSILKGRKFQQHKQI
hT2R16, sequence (Q9NYV7 whole entry): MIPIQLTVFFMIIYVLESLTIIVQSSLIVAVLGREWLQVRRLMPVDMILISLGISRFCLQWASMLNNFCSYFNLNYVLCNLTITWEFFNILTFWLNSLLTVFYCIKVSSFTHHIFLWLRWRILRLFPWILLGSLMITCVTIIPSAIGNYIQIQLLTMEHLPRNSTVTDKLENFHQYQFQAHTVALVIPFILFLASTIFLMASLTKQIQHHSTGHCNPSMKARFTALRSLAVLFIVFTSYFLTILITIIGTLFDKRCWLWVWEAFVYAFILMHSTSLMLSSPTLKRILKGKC
hT2R4, sequence (Q9NYW5 whole entry): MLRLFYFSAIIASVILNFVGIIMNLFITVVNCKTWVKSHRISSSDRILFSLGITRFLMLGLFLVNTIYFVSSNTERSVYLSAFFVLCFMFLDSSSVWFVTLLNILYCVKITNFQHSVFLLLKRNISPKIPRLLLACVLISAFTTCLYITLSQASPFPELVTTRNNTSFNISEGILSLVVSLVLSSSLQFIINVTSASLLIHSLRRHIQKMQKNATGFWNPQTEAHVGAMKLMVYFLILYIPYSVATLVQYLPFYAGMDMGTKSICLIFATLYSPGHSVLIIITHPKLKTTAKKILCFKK
T1 sequence (Q9NYV8 whole entry): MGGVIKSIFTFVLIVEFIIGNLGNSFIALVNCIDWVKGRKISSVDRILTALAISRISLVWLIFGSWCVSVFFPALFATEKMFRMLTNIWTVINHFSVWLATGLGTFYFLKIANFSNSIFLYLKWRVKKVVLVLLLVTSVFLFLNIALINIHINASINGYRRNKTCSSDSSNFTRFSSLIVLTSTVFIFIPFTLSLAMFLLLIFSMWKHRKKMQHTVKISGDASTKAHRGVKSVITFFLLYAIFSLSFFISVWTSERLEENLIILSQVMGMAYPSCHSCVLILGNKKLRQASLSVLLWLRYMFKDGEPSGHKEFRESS
hT2R10, sequence (Q9NYW0 whole entry): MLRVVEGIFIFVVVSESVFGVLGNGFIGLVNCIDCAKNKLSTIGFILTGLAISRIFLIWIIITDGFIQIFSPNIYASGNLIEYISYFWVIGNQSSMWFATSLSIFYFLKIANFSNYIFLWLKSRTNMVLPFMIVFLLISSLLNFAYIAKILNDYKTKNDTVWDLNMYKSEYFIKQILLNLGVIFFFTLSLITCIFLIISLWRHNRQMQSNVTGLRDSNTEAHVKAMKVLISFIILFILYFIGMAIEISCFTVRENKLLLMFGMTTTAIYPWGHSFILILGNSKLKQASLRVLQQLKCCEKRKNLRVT
hT2R71, sequence (P59536 whole entry): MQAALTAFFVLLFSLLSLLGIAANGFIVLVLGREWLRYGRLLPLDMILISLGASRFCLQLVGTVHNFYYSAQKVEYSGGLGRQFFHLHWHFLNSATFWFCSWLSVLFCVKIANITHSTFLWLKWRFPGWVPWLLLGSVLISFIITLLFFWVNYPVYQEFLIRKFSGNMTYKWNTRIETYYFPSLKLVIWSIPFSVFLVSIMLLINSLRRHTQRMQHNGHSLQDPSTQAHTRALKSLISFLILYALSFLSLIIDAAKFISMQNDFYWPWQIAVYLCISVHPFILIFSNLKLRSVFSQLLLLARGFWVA
hT2R51, sequence (P59533 whole entry): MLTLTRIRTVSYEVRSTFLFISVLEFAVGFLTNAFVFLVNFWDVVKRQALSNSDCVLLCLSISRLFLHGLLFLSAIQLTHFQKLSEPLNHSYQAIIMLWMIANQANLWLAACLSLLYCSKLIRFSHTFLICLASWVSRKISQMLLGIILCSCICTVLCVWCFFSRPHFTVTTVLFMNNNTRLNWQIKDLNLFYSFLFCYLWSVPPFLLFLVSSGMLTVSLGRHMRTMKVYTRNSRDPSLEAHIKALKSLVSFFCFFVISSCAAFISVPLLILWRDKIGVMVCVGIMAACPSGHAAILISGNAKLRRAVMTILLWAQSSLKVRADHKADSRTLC
hT2R75, sequence (P59540 whole entry): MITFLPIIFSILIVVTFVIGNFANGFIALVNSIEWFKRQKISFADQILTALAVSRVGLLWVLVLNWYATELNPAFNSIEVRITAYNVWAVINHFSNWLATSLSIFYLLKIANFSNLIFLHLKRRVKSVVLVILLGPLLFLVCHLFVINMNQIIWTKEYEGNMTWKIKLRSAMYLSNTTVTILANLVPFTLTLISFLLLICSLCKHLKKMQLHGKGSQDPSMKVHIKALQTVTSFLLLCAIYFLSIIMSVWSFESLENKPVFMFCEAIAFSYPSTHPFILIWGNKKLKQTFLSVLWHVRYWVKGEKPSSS

Structure (SMILES)	screening result against bitter receptor 44 [1]	inhibition at 25 µM [2, 20] [%]	inhibition at 25 µM [3, 21] [%]	screening result against bitter receptor 63 [4]	inhibition at 25 µM [5, 22] [%]	inhibition at 25 µM [6, 23] [%]	inhibition at 25 µM [7, 24] [%]	IC50 [18]	inhibition at 25 µM [8, 26] [%]	inhibition at 25 µM [12, 27] [%]	inhibition at 25 µM [13, 28] [%]	inhibition at 25 µM [15, 29] [%]	screening result against bitter receptor 55 [17]	further results
COc1ccc(CN(Cc2ccc(NC(C)=O)cc2)S(=O)(=O)c2ccc(C(=O)O)cc2)cc1 [Example 5-26, 4-(N-(4-acetamidobenzyl)-N-(4-methoxybenzyl)sulfamoyl)benzoic acid]	+ (20% to 40% inhibition = +)	60 to 80	40 to 60	+++ (60% to 80% inhibition = +++)	20 to 40	20 to 40	20 to 40	–	–	–	–	–	–	–
CCOc1ccc(CN(Cc2ccccc2)S(=O)(=O)c2ccc(C(=O)O)cc2)cc1 [Example 5-108, 4-(N-benzyl-N-(4-ethoxybenzyl)sulfamoyl)benzoic acid]	–	–	–	–	–	–	–	–	–	–	–	–	–	inhibition of bitter receptor 44 [1, 25]: +++ (60% to 80% inhibition = +++); inhibition at 25 µM ([8]; HEK293, read-out: inhibition of bitter receptor 10, compound at 25 μM, receptor activated to EC80 with agonist): 40 to 60%; inhibition of bitter receptor 54 [9, 25]: + (20% to 40% inhibition = +); inhibition at 25 µM ([2]; receptor activated to EC80 with agonist, read-out: inhibition of bitter receptor 64): > 80%; inhibition at 25 µM ([10]; receptor activated to EC80 with agonist, read-out: inhibition of bitter receptor 5): 20 to 40%; inhibition of bitter receptor 67 [11]: + (20% to 40% inhibition = +); inhibition at 25 µM ([12]; receptor activated to EC80 with agonist, read-out: inhibition of bitter receptor 16): 20 to 40%; inhibition at 25 µM ([13]; receptor activated to EC80 with agonist, read-out: inhibition of bitter receptor 3): 40 to 60%; inhibition at 25 µM ([3]; receptor activated to EC80 with agonist, read-out: inhibition of bitter receptor 4): 60 to 80%; inhibition at 25 µM ([14]; receptor activated to EC80 with agonist, read-out: inhibition of bitter receptor 51): 40 to 60%; inhibition of bitter receptor 63 [4, 25]: +++ (60% to 80% inhibition = +++); inhibition at 25 µM ([15]; receptor activated to EC80 with agonist, read-out: inhibition of bitter receptor 14): > 80%; inhibition of bitter receptor 65 [16, 25]: ++ (40% to 60% inhibition = ++); inhibition of bitter receptor 55 [17, 25]: ++++ (80% or greater inhibition = ++++); inhibition at 25 µM ([5]; receptor activated to EC80 with agonist, read-out: inhibition of bitter receptor 71): 60 to 80%; inhibition at 25 µM ([6]; receptor activated to EC80 with agonist, read-out: inhibition of bitter receptor 61): > 80%; inhibition at 25 µM ([7]; receptor activated to EC80 with agonist, read-out: inhibition of bitter receptor 7): 20 to 40%
O=C(O)C1CCC(CN(Cc2ccc(F)cc2)S(=O)(=O)c2ccccc2)CC1 (stereo not shown) [Example 5-22, 4-((N-(4-fluorobenzyl)phenylsulfonamido)methyl)-cyclohexanecarboxylic acid]	++ (40% to 60% inhibition = ++)	40 to 60	40 to 60	+++ (60% to 80% inhibition = +++)	40 to 60	> 80	20 to 40	0.24 µM	20 to 40	20 to 40	40 to 60	> 80	+++ (60% to 80% inhibition = +++)	inhibition at 25 µM [19]: 20 to 40%
O=C(O)C1CCC(CN(Cc2ccc(F)cc2)S(=O)(=O)Cc2ccccc2)CC1 (stereo not shown) [Example 5-24, 4-((N-(4-fluorobenzyl)-1-phenylmethylsulfonamido)methyl)-cyclohexanecarboxylic acid]	+ (20% to 40% inhibition = +)	60 to 80	20 to 40	+ (20% to 40% inhibition = +)	20 to 40	> 80	20 to 40	9.57 µM	–	–	–	–	++ (40% to 60% inhibition = ++)	–
CCN(Cc1ccc(OC)cc1)S(=O)(=O)c1ccc(C(=O)O)cc1 [Example 5-4, 4-(N-ethyl-N-(4-methoxybenzyl)sulfamoyl)benzoic acid]	–	> 80	20 to 40	+++ (60% to 80% inhibition = +++)	–	20 to 40	–	20 µM and 10 µM	40 to 60	–	–	40 to 60	++++ (80% or greater inhibition = ++++)	inhibition at 25 µM [19]: 20 to 40%
Cc1ccc(S(=O)(=O)N(Cc2ccc(F)cc2)Cc2ccc(C(=O)O)cc2)cc1 [Example 5-37, 4-((N-(4-fluorobenzyl)-4-methylphenylsulfonamido)methyl)benzoic acid]	–	60 to 80	60 to 80	+ (20% to 40% inhibition = +)	–	–	20 to 40	0.054 µM	–	20 to 40	20 to 40	> 80	++++ (80% or greater inhibition = ++++)	inhibition at 25 µM [10, 30]: 20 to 40%; screening result against bitter receptor 65 [16, 31]: ++ (40% to 60% inhibition = ++)
COc1ccc(CN(Cc2ccc(OC)c(OC)c2)S(=O)(=O)c2ccc(C(=O)O)cc2)cc1 [Example 5-40, 4-(N-(3,4-dimethoxybenzyl)-N-(4-methoxybenzyl)sulfamoyl)benzoic acid]	+++ (60% to 80% inhibition = +++)	60 to 80	20 to 40	++++ (80% or greater inhibition = ++++)	40 to 60	> 80	–	1.47 µM	40 to 60	20 to 40	20 to 40	> 80	++++ (80% or greater inhibition = ++++)	screening result against bitter receptor 54 [9, 31]: + (20% to 40% inhibition = +); inhibition at 25 µM [10, 30]: 20 to 40%; inhibition at 25 µM ([14]; receptor activated to EC80 with the corresponding agonist, read-out: screening result against bitter receptor 51): 20 to 40%
